The assay has as its system onset of the headache phase of migraine. In words: Open label pilot study of oral naratriptan 2.5 mg taken as a single dose during prodrome. The class given is in vivo, human. As for the experimental part: An open label pilot study was conducted to determine whether oral naratriptan 2.5 mg taken as a single dose during the prodrome could prevent the onset of the headache phase of migraine. […] Twenty patients recruited at 4 study sites were administered oral naratriptan 2.5 mg after onset of prodrome symptoms for a total of 63 prodromes. […] The pain severity of headaches that were not prevented were reduced as compared to baseline pain severity of migraine attacks not treated with naratriptan. An additional 13 patients recruited at a fifth site were also treated. […] Upon review, all 13 patients reported onset of headache within 3 hours after administration of naratriptan. Eighty-seven percent of prodromes in this patient group were treated ≦2 hours before onset of headache.

Molecules are shown by their SMILES.

Take `CNS(=O)(=O)CCc1ccc2[nH]cc(C3CCN(C)CC3)c2c1.Cl` [naratriptan, N-methyl-3-(1-methyl-4-piperidinyl)-1H-indole-5-ethanesulfonamide monohydrochloride]: the “headaches not prevented that occurred ≦2 hours after treatment” value (4 sites, 15 of the 25 headaches) is 60%. Further, the “pain severity of headaches that were not prevented, compared to baseline pain severity of attacks not treated with naratriptan” value (4 study sites, oral 2.5 mg) is “reduced”. The “treated prodromes that did not progress to headache” value (20 patients at 4 study sites, 63 prodromes, oral 2.5 mg after onset of prodrome symptoms) is recorded as “Sixty”. Also, the “patients reporting headache following treatment” value (additional 13 patients at a fifth site) is “All 13 patients reported headache following each treatment”. Further, the “prodromes treated ≦2 hours before onset of headache” value (fifth site, 13 patients) is listed as “Eighty-seven”. In addition, the “onset of headache after administration” value (fifth site, all 13 patients) is no more than 3 h. For the same compound, for the setting “oral 2.5 mg single dose during prodrome, open label”, the “preventing the onset of the headache phase of migraine” value is “effective in preventing the onset of the headache phase of migraine”.

For the origin of these results see patent US7189753B1, “Preemptive prophylaxis of migraine” (priority 1997, dated 2007).
